Assay: Solubility of additives in diesel at 4°C (visual phase separation)
Assay type: physicochemical
Settings: for limit of addition to diesel by solubility: conclusion from Example 2
Protocol: Tests for solubility in diesel at 4°C were performed with the effluent of the etherification of solketal with isobutylene. Table 1: Composition of the additive STBE
Three additives were prepared each with a different STBE/SLK ratio (1/3, 1/1 and 3/1 w/w) from […] this effluent. In turn, these additives were added to the same diesel fuel in increasing proportions (2, 10, 20, 30 and 50 % wt.).
Table 5: Results for STBE solubility in diesel at 4°C

Row | solubility in diesel at 4°C (0.5 % wt. additive in diesel) | state of additive in diesel (Fig 1) (2% in diesel, photograph) | solubility in diesel at 4°C (60 % wt. additive in diesel) | solubility in diesel at 4°C (75 % wt. additive in diesel) | solubility in diesel at 4°C (80 % wt. additive in diesel) | Structure (SMILES) | limit of addition to diesel by solubility
1 | S | phase separation | – | – | – | CC1(C)OCC(CO)O1 (stereo not shown) [SLK, 2,2-dimethyl-4-hydroxymethyl-1,3-dioxolane, reference compound] | ≤ 0.5 % by weight
2 | – | – | S | S | S | CCC(C)(C)OCC1COC(C)(C)O1 (stereo not shown) [STAE-97, solketal-ter-amyl-ether] | not limited by its solubility with diesel
